Measurements reported in US11407741B2, “Compounds and their use as selective inhibitors of caspase-2” (priority 2017, dated 2022).
Where a SMILES comes first, the peptide text is derived from it. [ ]: non-standard residue; d: D form. The star is where a group is joined. Pro(3S-CH2tBu) = CC(C)(C)C[C@H]1CCN[C@@H]1C(=O)O; X4 = CN(Cc1ccccc1)C(=O)/C=C/C(=O)N(CC(=O)O)N*; X3 = O=C(O)CN(N*)C(=O)COc1c(F)cccc1F; Quinaldoyl = O=C(c1ccc2ccccc2n1)*; X1 = c1ncc(CO*)s1

Test system: hippocampal neurons intoxicated with Aβ1-42 oligomers
Experiment: Protection against Abeta neurotoxicity in primary hippocampal neurons in microfluidic chambers
Format: cell-based, mice
Parameters: key to Protective effect against Aβ toxicity: +: significant protection against a Aβ-induced cell death, Aβ-induced axonal degeneration, Aβ-induced electrophysiological dysfunction, and/or Aβ-induced synapse loss
Conditions: for Protective effect against Aβ toxicity: hippocampal cells pre-incubated 1 h, then Aβ1-42 oligomers
Source text: Hippocampus are micro-dissected from E16 embryos of C57B16/J wt mice (Rene Janvier, France) in cold Gey's Balanced Salt Solution (GBSS, Sigma) supplemented with 0.1% glucose (Life technologies).
Dissected structures are digested with papain (20 U/ML in DMEM, Sigma; St. Louis, Mo., USA) and mechanically dissociated in the presence of DNAse. Hippocampal cells are then rinsed and re-suspended in DMEM (Life Technologies, Inc., Gaithersburg, Md., USA) to a final density of 18 million cells/ml in Neurobasal (Life technologies) and Glutamax (0.1% LifeTechnologies) supplemented with B27 (1/50) and penicilline/sptreptomycine 1% (Gibco).
This cell suspension is then used to fill the reservoirs of microfluidic chambers, as described (Peyrin et al, 2011 Lab Chips 11(21):3663; Deleglise et al, 2014 Acta Neuropathologica Comm. 2: 145). Microfluidic chips are placed in plastic Petri dishes containing H20-EDTA to prevent evaporation and incubated at 37° C. in a humid 5% CO2 atmosphere. The culture medium is renewed every seven days.
Oligomeric form of Aβ1-42 (Tocris Bioscience, MN, USA), is produced according to Stine W B et al (2003) in J Biol Chem 278, pp 11612-11622 and can be controlled by electron microscopy as in Deleglise B et al. in Acta Neuropathol Commun. 2014; 2: 145).
Briefly, Aβ1-42 lyophilized peptides are solubilized at 1 mM in 1, 1, 1, 3, 3, 3,-hexafluoro-2-propanol (HFIP, Sigma Aldrich). After 30 min of incubation at RT, HFIP is evaporated for 12 h under chemical hood and peptides are dried for 1 h (with a Speed Vac at 4° C.). Then, 5 mM Aβ peptide stock solutions are obtained by resolubilization at in dimethylsulfoxide (DMSO, Sigma Aldrich). To obtain oligomers, Aβ peptide stock solution is diluted in cold phenol free DMEM-F12 medium (Life Technologies) to a final concentration of 100 μM. The solution is then incubated 24 h at 4° C. Soluble Aβ oligomer fraction is collected from the supernatant after a centrifugation step at 20 000 g (10 min; 4° C.), and stored at −80° C. until use.
After 18 days of culture in micro fluidic chambers, hippocampal cells are pre-incubated for 1 h with compounds of the invention prior diluted in phenol free DMEM-F12 medium or in phenol free DMEM-F12 medium alone as a control solution. Cells are then intoxicated for 3 h to 6 h or 24 h with 10 or 100 nm of Aβ1-42 oligomers (or with phenol free DMEM-F12 medium alone as a control solution). After the intoxication step, cells are fixed in 4% paraformaldehyde (PFA, Sigma; St. Louis, Mo., USA) for 20 min RT, and labelled as explained below to evaluate synapses status, cell death or axonal degeneration.
Briefly, after the fixation step, cultures cells are washed twice with PBS+Azide 0.1% for 5 min and permeabilized for 10 min with 0.2% Triton X-100 and 0.1% BSA (Bovine Serum Albumin, Sigma) in PBS+Azide 0.1%. Saturation step is then realized by incubating cells during 30 min in PBS+Azide 0.1%+BSA1%. Primary antibodies are then added and the samples incubated at 4° C. overnight in PBS. Afterwards, samples are rinsed twice for 5 min with PBS+Azide 0.1% and further incubated with the corresponding secondary antibody together with phalloidin conjugated to Alexa Fluor 555 for 2 h RT. The chips were then rinsed twice with PBS+Azide 0.1%.
The following antibodies are used: rabbit polyclonal anti-MAP-2 (AB5622; 1/400, MILLIPORE), mouse monoclonal Anti-Bassoon SAP7F407; 1:400, Enzo LifeSciences). Species-specific secondary antibodies coupled to Alexa 350, 488 or 500 are used (1/500, Life Technologies, Inc., Gaithersburg, Md., USA). Phalloidin conjugated to Alexa Fluor 555 (1/500, EnzoLifeTechnologies) is used to stain F-actin.
Images are acquired with an Axio-observer Zl (Zeiss, Germany) fitted with a cooled CCD camera (CoolsnapHQ2, Ropert Scientific). The microscope is controlled with Metamorph and Micro-manager software. Images were analyzed using ImageJ software.

Row | SMILES | Protective effect against Aβ toxicity | Synapse protection toward Amyloid beta peptide [1-42] oligomers toxicity (FIG. 1) (pretreated at 0.1 μM or 1 μM, Aβ[1-42] oligomers 10 nM, **p<0.01)
1 | CC(C)[C@H](NC(=O)c1ccc2ccccc2n1)C(=O)N[C@@H](CC(=O)O)C(=O)N[C@H](C(=O)N1CC[C@H](CC(C)(C)C)[C@H]1C(=O)NN(CC(=O)O)C(=O)COc1c(F)cccc1F)C(C)C [Compound 4, (S)-4-(((S)-1-((2S,3S)-2-(2-(carboxymethyl)-2-(2-(2,6-difluorophenoxy)acetyl)hydrazinecarbonyl)-3-neopentylpyrrolidin-1-yl)-3-methyl-1-oxobutan-2-yl)amino)-3-((S)-3-methyl-2-(quinoline-2-carboxamido)butanamido)-4-oxobutanoic acid] (Quinaldoyl-VDV[Pro(3S-CH2tBu)]-X3) | + | 
2 | CC(C)[C@H](NC(=O)c1ccc2ccccc2n1)C(=O)N[C@@H](CC(=O)O)C(=O)N[C@H](C(=O)N1CC[C@H](CC(C)(C)C)[C@H]1C(=O)N[C@@H](CC(=O)O)C(=O)OCc1cncs1)C(C)C [Compound 3, (S)-4-(((S)-1-((2S,3S)-2-(((S)-3-carboxy-1-oxo-1-(thiazol-5 - ylmethoxy)propan-2-yl)carbamoyl)-3-neopenthylpyrrolidin-1-yl)-3-methyl-1-oxobutan-2-yl)amino)-3-((S)-3-methyl-2-(quinoline-2-carboxamido)butanamido)-4-oxobutanoic acid] (Quinaldoyl-VDV[Pro(3S-CH2tBu)]D-X1) | + | 
3 | CC(C)[C@H](NC(=O)c1ccc2ccccc2n1)C(=O)N[C@@H](CC(=O)O)C(=O)N[C@H](C(=O)N1CC[C@H](CC(C)(C)C)[C@H]1C(=O)NN(CC(=O)O)C(=O)/C=C/C(=O)N(C)Cc1ccccc1)C(C)C [Compound 5, (S)-4-(((S)-1-((2S,3S)-2-(2-((E)-4-(benzyl(methyl)amino)-4-oxobut-2-enoyl)-2-(carboxymethyl)hydrazinecarbonyl)-3-neopentylpyrrolidin-1-yl)-3-methyl-1-oxobutan-2-yl)amino)-3-((S)-3-methyl-2-(quinoline-2-carboxamido)butanamido)-4-oxobutanoic acid] (Quinaldoyl-VDV[Pro(3S-CH2tBu)]-X4) | + | 
4 | CC(C)[C@H](NC(=O)[C@H](CC(=O)O)NC(=O)C(=O)Nc1ccccc1C(C)(C)C)C(=O)N1CC[C@H](CC(C)(C)C)[C@H]1C(=O)NN(CC(=O)O)C(=O)COc1c(F)cccc1F [Compound 6, (S)-3-(2-((2-(tert-butyl)phenyl)amino)-2-oxoacetamido)-4-(((S)-1-((2S,3S)-2-(2-(carboxymethyl)-2-(2-(2,6-difluorophenoxy)acetyl)hydrazinecarbonyl)-3-neopentylpyrrolidin-1-yl)-3-methyl-1-oxobutan-2-yl)amino)-4-oxobutanoic acid] | + | 
5 | CC(C)[C@H](NC(=O)c1ccc2ccccc2n1)C(=O)N[C@@H](CC(=O)O)C(=O)N[C@H](C(=O)N1CC[C@H](CC(C)(C)C)[C@H]1C(=O)N[C@@H](CC(=O)O)C(=O)COc1c(F)cccc1F)C(C)C (single isomer, unassigned) [Compound 2 enantiomer a] |  | Synapse protection
